Measurements published in patent US10420734B2, “Method of treating cancer using selective estrogen receptor modulators” (Duke University, priority 2014, dated 2019).
Entries after “also recorded” stand apart in the source; their conditions may differ.

What was measured:
Type in all cases: cell-based
[1] = target: T1, ESR1 (Homo sapiens, UniProt P03372); assay: ESR1 expression in LTED MCF7 cells (immunoblot); details: 24 hours, SERDs 10^-6 M
T1 sequence (P03372 1-595): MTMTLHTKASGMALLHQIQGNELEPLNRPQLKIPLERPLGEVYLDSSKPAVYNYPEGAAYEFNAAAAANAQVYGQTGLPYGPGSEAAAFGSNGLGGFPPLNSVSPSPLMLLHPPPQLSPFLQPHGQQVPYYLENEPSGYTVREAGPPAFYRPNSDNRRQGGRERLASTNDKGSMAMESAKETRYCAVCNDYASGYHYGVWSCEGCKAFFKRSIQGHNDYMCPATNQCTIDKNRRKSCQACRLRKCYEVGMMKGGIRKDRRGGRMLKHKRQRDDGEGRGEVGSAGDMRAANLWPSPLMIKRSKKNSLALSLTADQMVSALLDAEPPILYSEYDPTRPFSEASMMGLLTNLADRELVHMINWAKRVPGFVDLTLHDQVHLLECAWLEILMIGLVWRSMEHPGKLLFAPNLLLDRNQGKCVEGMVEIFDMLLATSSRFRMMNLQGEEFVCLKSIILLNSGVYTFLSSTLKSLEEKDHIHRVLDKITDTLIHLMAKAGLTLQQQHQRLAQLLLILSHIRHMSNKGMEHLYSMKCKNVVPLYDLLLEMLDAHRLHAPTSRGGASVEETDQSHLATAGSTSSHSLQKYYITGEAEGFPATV
Protocol: MCF7 and SKBR3 cell lines were maintained in DMEM/F12 or RPMI media (Invitrogen), respectively, supplemented with 8% fetal bovine serum (FBS, Gemini), non-essential amino acids (Invitrogen), and sodium pyruvate (Invitrogen). Unless otherwise indicated, cells were plated for experiments in media lacking phenol red and supplemented with 8% charcoal stripped FBS (CFS, Gemini). LTED MCF7 cells were maintained and plated for experiments in phenol red free DMEM/F12 media supplemented with 8% CFS that had been charcoal stripped twice. 48 hours after plating, cells were treated with ESR1 ligands as indicated, and were harvested for immunoblot or real time quantitative PCR analysis 24 hours after treatment.
(§1) Expression of ESR1 and loading control cytokeratin 18 (CK18—FIG. 7A) in whole cell extracts were detected by immunoblot (top). ESR1 levels relative to CK18 were quantitated by densitometry using Adobe Photoshop (bottom). […] ESR1 expression was detected as in FIG. 6A. For FIGS. 6C-6D, LTED MCF7 cells were plated in phenol red free media supplemented with FBS that was stripped of growth factors twice using charcoal. For FIG. 6C, after 48 hours, cells were treated for 24 hours with E2 (10^−7 M) or SERDs (10^−6 M) and ESR1 was analyzed as in FIG. 6A.

[2] = target: T1, ESR1; assay: Mammalian two-hybrid conformational profiling of ESR1 with peptide probes in SKBR3 cells; parameters: expressed in transfected cells; host or cells: SKBR3
Protocol: Triplicate wells of SKBR3 cells were transfected (Lipofectin per manufacturer's instructions) with plasmids expressing ERα fused to VP16 together with Gal4DBD alone (control) or fused to ER interacting peptides noted on the horizontal axis. Cells were then treated with RAD1901 (1 nM-1 μM) or the indicated ER ligands (100 nM). Interaction of ERα with the Gal4DBD peptide constructs was detected through activation of a Gal4 responsive luciferase reporter construct and was normalized to detected β-galactosidase activity generated by a co-transfected constitutive expression vector. Ligand classes recognized by each probe are indicated below the graph.
Mammalian 2-hybrid analysis of VP16-ESR1 with conformation-selective peptide probes was performed essentially as previously described (Wardell et al., (2012) Mol Endocrinol 26 (7):1235-1248).
The expression of ESR1 target genes responsive to (FIG. 10A) agonists, (FIG. 10B) primarily SERMs, or (FIG. 10C) SERMs and agonists was analyzed as in FIG. 5. Relative changes of these and additional target genes designed to evaluate dose dependent response to RAD1901 are presented in FIG. 11. Significant target gene regulation (*p<0.05) as compared to the vehicle control was detected by 2 way ANOVA followed by Fisher's LSD (Graphpad Prism 6). […] Triplicate wells of SKBR3 cells were transfected with plasmids expressing ESR1 fused to VP16 together with Gal4DBD alone (control) or Gal4DBD fused to ESR1 interacting peptides noted on the horizontal axis. Cells were then treated with the indicated ESR1 ligands (10^−7 M unless otherwise indicated). Interaction of ESR1 with the Gal4DBD peptide constructs was detected through activation of a Gal4-responsive luciferase reporter construct and was normalized to detected β-galactosidase activity expressed in a constitutive manner using a second vector. Normalized response was expressed as fold increase over the detected level of interaction between Gal4DBD alone and ESR1-VP16 in the absence of ligand (Veh). For FIG. 10E, the effect of SERMs and SERDs (10^−6 M) on the proliferation of MCF7 cells in response to E2 (10^−9 M) or insulin (2×10^−9 M) was evaluated as in FIG. 5. Statistically similar treatments (2-way ANOVA followed by Bonferroni comparison) are indicated by letters. […] The expression of ESR1 target genes responsive to (A) agonists, (B) primarily SERMs, or (C) SERMs and agonists was analyzed using RT qPCR following RNA isolation. mRNA expression was normalized (ΔΔCT analysis) to the similarly detected 36B4 housekeeping. The profiles presented in dendogram format were analyzed with the Ward hierarchical clustering algorithm (JMP 11) using standardized data.

[3] = target: T1, ESR1; assay: ESR1 expression in MCF7 cells (immunoblot, mRNA, MG132 pre-treatment)
Protocol: Protein expression was analyzed as described (Wittmann et al., (2007) Cancer Res 67 (19):9549-9560) using antibodies purchased from Sigma-Aldrich—A5441 (β-actin) and Santa Cruz Biotechnology—sc-6259 (cytokeratin 18), sc-20680 (lamin A), sc-5546 (α-tubulin) and sc-8005 (ESR1).
as §1

ESR1 expression levels [1]: downregulated ESR1 expression
interaction of αII peptide (hinge region surface) [2]: significant interaction
interaction with peptides reporting ESR1 structures adopted upon binding tamoxifen (aβV) or ICI (βI2) [2]: No interaction was observed
interaction with peptides that report on agonist activity (ASC1 and PGC1) [2]: decreased interaction
ESR1 mRNA expression [3]: no effect
ESR1 expression (immunoblot) ([3]; 24 hours, RAD1901 10^-11-10^-5 M): significantly downregulated
downregulation of ESR1 after pre-treatment with proteasome inhibitor MG132 ([3]; MG132 1 hour pre-treatment, 6 hours ligand): completely blocked
Compound: CCNCCc1ccc(CN(CC)c2cc(OC)ccc2[C@@H]2CCc3cc(O)ccc3C2)cc1 [RAD1901, (R)-6-{2-{ethyl[4-(2-ethylaminoethyl)benzyl]amino}-4-methoxyphenyl}-5,6,7,8-tetrahydronaphthalen-2-ol]
ESR1 conformation / peptide interaction profile [2]: induces a unique conformation of ERα; also recorded: completely distinct from any other known ligand
